Measurements published in patent US9701709B2 (REATA PHARMACEUTICALS, INC., priority 2012, dated 2017).

Key:
[1] = tested on: NQO1 enzymatic activity in RAW264.7 mouse macrophage cells; assay: NQO1 enzymatic activity (modified Prochaska assay) in RAW264.7; type: cell-based; settings: RAW264.7, 24 h
Protocol: Consistent with induction of Nrf2 target genes and corresponding protein products, treatment of RAW264.7 mouse macrophage cells for 24 h increased NQO1 enzymatic activity in a dose-dependent manner, with increases evident at 7.8 nM (FIG. 7). NQO1 enzymatic activity was measured by a modified Prochaska assay (Prochaska and Santamaria, Anal Biochem. 169:328-336, 1988, which is incorporated herein by reference).

[2] = tested on: total glutathione in AML-12 hepatocyte cell line; assay: Total glutathione (GSH-Glo) in AML-12; type: cell-based, mouse; settings: AML-12, 24 h, 15.6 nM
Text: Glutathione and NADPH are critical factors required for the maintenance of cellular redox capacity. […] Data shown are representative of two independent experiments.

[3] = tested on: NADPH levels in HCT-116 cells; assay: WST-1 absorbance as marker of NADPH in HCT-116; type: cell-based; settings: HCT-116, 24 h
Text: WST-1 absorbance is commonly used to assess cell viability by measuring glycolytic production of NAD(P)H by viable cells. Therefore, in situations where NADPH production increases in the absence of any effect on cell viability, WST-1 absorbance also increases (Berridge et al. Biochemica 4:14-19, 1996, which is incorporated herein by reference).

[4] = tested on: H6PD, PGD, TKT, ME1 mRNA in HCT-116 cells; assay: mRNA of NADPH synthesis genes in HCT-116; type: cell-based; settings: HCT-116, 10 or 50 nM, 24 h
Protocol: HCT-116 cells were plated in 6-well dishes at a density of 3×10^5 cells/well. […] Each well received the same amount of vehicle. Following treatment, media was removed and cells were harvested using RLT buffer (Qiagen). Lysates were homogenized using QIAShredder columns (Qiagen, Catalog #79654) and RNA was isolated using RNeasy Mini kits (Qiagen, Catalog #74104). For reverse transcription, RNA (1 μg) was combined with Oligo(dT)12-18 primer and H2O in a final volume of 23.25 μL. The mixture was heated to 70° C. for 10 min and then placed on ice. A master mix containing 8 μL 5×1st strand buffer, 2 μL 1 mg/ml BSA, 2 μL 20 mM DTT, 4 μL 5 mM dNTP mix, 0.25 μL RNaseOUTTM and 0.5 μL […]® II reverse transcriptase was added to the RNA mixture and incubated at 42° C. for 1 h. The reaction was inactivated by heating to 70° C. for 10 min. The reaction mixture was diluted 1:3 with H2O prior to use in qPCR. 2.5 μL of the diluted reverse transcription reaction was combined with one set of PCR primers (0.36 μM final concentration), 2× iQTM SYBR® Green Supermix (Bio-Rad, Catalog #170-8885) and H2O to a final volume of 20 pt. Sequences for PCR primers are as follows: Ribosomal protein S9 (RPS9) forward primer [NT] ID NO: 7), reverse primer [NT] ID NO: 8); […] […] The relative abundance of each target gene was determined using the comparative CT method (ΔΔCT). […]

neurobehavioral measures = assay: Neurobehavioral evaluation (FOB) in rats; type: in vivo, rat
Protocol: One additional group of 10 animals/sex served as the control and received vehicle (sesame oil).
Observations for morbidity, mortality, injury, and availability of food and water were conducted twice daily for all animals. Observations for clinical signs were conducted prior to dosing on Day 1 and following each functional observational battery (FOB) evaluation. FOB evaluations were conducted pre-dose (Day −1) and at approximately 4 and 24 h post-dose. Body weights were measured and recorded pre-dose on Day 1.

[5] = Oral pharmacokinetics, statements pooled over mice, rats, and monkeys; type: in vivo; settings: mouse, rat, monkey, plasma; after oral administration; read-out: Apparent terminal half-life
Protocol: Measurements were performed on TQD and QToF mass spectrometers (Waters).
Following oral administration of a suspension formulation at doses of 10 to 100 mg/kg, maximal concentrations were observed within 1 to 2 h in mice, and within 1 to 24 h in rats and monkeys.

[6] = Ocular absorption and distribution in rabbits; type: in vivo, rabbit
Protocol: Using rabbits, the ocular absorption and systemic pharmacokinetic behavior of RTA 408 was evaluated. RTA 408 was administered topically to the eye once per day for five days.

[7] = tested on: C4-2B-Luc and DU145-Luc human prostate cancer tumors; assay: Pilot in vivo prostate tumor model with ionizing radiation (luciferase imaging); design: species or system mouse; settings: 17.5 mg/kg i.p. plus 18 Gy; n=1
Protocol: The colors indicated by the arrows are indicative of intensity with the intensities being represented by red, yellow, green, and blue in order from highest to lowest intensity.
After the successful results of the in vitro assay, a pilot in vivo assay was carried out using LNCaP/C4-2B and DU145 human prostate cancer engineered to express firefly luciferase (hereafter referred to as C4-2B-Luc and DU145-Luc, respectively). Of note, both of these cell lines grow in an androgen-independent fashion. Cells were cultured in RPMI 1640 supplemented with 10% FBS. Cells were harvested using TrypLE Express (Invitrogen) and washed in PBS and counted. Cells were reconstituted in PBS to arrive at a final concentration of 3×10^6 cells per 30 μL (unless otherwise stated) and aliquoted in separate tubes. Growth factor-reduced Matrigel (BD Bioscience) was thawed overnight at +4° C. and transferred into the tubes in 30 μL aliquots. The cell/Matrigel solutions were transferred to the vivarium and mixed right before injection at a 1:1 ratio. Each mouse (n=1 per group for a total of three animals) received a single subcutaneous injection of the tumor cells. Tumors were pre-established for 4 weeks. […] Tumor progression was monitored weekly via live imaging. […] For standardization, minimal exposure time necessary to image control tumor was determined and all animals were imaged under these conditions. […]

[8] = tested on: LPS-induced pulmonary inflammation; assay: LPS-induced pulmonary inflammation in mice

CC1(C)CC[C@]2(NC(=O)C(C)(F)F)CC[C@]3(C)[C@H](C(=O)C=C4[C@@]5(C)C=C(C#N)C(=O)C(C)(C)[C@@H]5CC[C@]43C)[C@@H]2C1 [RTA 408, N-((4aS,6aR,6bS,8aR,12aS,14aR,14bS)-11-cyano-2,2,6a,6b,9,9,12a-heptamethyl-10,14-dioxo-1,2,3,4,4a,5,6,6a,6b,7,8,8a,9,10,12a,14,14a,14b-octadecahydropicen-4a-yl)-2,2-difluoropropanamide]
Concentration at which increases in NQO1 enzymatic activity were evident [1]: 7.8 nM
Increase in total glutathione [2]: > 2 fold
WST-1 absorbance (marker of NADPH) [3]: increased WST-1 absorbance in a dose-dependent manner
Expression of genes involved in NADPH synthesis [4]: dose-dependent increase in expression of genes involved in NADPH synthesis
Body weight gain approximately 24 h after dosing (neurobehavioral measures; 30 mg/kg): Slight decreases in body weight gain
Neurobehavioral endpoints (neurobehavioral measures; single oral dose up to and including 30 mg/kg): did not produce any adverse effects
half-life [5]: 6 to 26 h
Ocular tissue distribution ([6]; ocular topical administration): highest concentrations of the compound were found in the cornea, retina, or iris
Plasma concentration after ocular administration ([6]; topical to the eye once per day for five days): lower plasma concentration of RTA 408 relative to when RTA 408 is administered orally
Tumor image (luciferase), RTA 408 plus ionizing radiation [7]: no visible tumor on Day 21
BALF cytokines, second study ([8]; 10 mg/kg daily for six days): Significant reductions in TNF-α
BALF cytokines, second study ([8]; 30 mg/kg daily for six days): significant reductions in IL-12p40, TNF-α, and RANTES
Body weight, second study ([8]; 100 mg/kg daily, starting on Day 3): significant decreases in body weight
Lung NQO1 enzyme activity (with increases in total GSH), second study ([8]; 10 and 30 mg/kg): significant induction of NQO1 enzyme activity
BALF pro-inflammatory markers, first study ([8]; 30, 100, or 150 mg/kg orally once daily for three days): significant reduction in IL-12p40 at all doses and in TNF-α at the 100 and 150 mg/kg doses
Peak reductions in TNF-α, IL-6, and IL-12 in BALF ([8]; QD×3, LPS 1 h after last dose, BALB/c mice): 50%-80%
